This is an account of results in the METLIN SMRT retention time set (Domingo-Almenara et al. 2019).

The data set can be described thus: gradient 5% acetonitrile 3 min, to 50% in 2 min, to 85% in 15 min, held 3 min, 100 µL/min. The note with it: column: Zorbax Extend-C18 2.1 x 50 mm; eluents: water / acetonitrile, 0.1% formic acid. The gist of the method: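 Data were gathered over 3 months by HPLC coupled to a quadrupole time-of-flight mass spectrometer, operated in positive and negative ionization mode. Mixtures of ~100 pure standards ran on a Zorbax Extend-C18 column (2.1 × 50 mm, 1.8 μm) at 100 μL/min, with water and acetonitrile each containing 0.1% formic acid and dead and dwell volumes of 40 μL and 900 μL. Retention time was read from adduct peaks picked by computer and checked manually.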
Consider `Cc1ccc(C(=O)N(CCCN)[C@@H](c2oc3cc(Cl)ccc3c(=O)c2Cc2ccccc2)C(C)C)cc1`, for which the RP-LC retention time was determined as 863 s.
The molecule `Cc1ccccc1NC(=O)Cn1nc(N2CCSCC2)c2ccccc2c1=O` showed an RP-LC retention time of 892 s.
With `O=C(c1cc2occc2c(Nc2ccc(Cl)cc2)n1)N1CCN(C(=O)c2ccco2)CC1`, the RP-LC retention time turned out to be 861 s.
The molecule `CC(C)c1c(C2CCN(C(=O)c3cc4ccccc4[nH]3)CC2)noc1N` registered an RP-LC retention time of 824 s.
In turn, `O=S(=O)(c1cccs1)N1CCc2nc(-c3ccccc3)ncc2C1` yielded an RP-LC retention time of 992 s.
In turn, `CCC1(C(=O)NCc2ccc(C)cc2)CCCCC(=O)N1` (stereo unspecified) had an RP-LC retention time of 707 s.
Take `CCOCCCNC(=O)c1cc2sc(C)cc2n1C`: the RP-LC retention time was found to be 861 s.
Molecule `CC(C)Cn1cc(CCNS(=O)(=O)Cc2ccc(Cl)cc2)c2cccnc21` gave an RP-LC retention time of 986 s.
The molecule `Cc1cccc(-c2noc(C3CCCN3S(=O)(=O)c3ccc(Br)cc3)n2)c1` (stereo unspecified) displayed an RP-LC retention time of 1230 s.
As to `COC[C@@H]1CN(Cc2c(OC)cccc2OC)C[C@H]1c1ccncc1`, the RP-LC retention time was 656 s.
Next, `COc1ccc(NC(=O)C2CCN(C(=O)C3Sc4ccccc4NC3=O)CC2)c(OC)c1` (stereo unspecified): 754 s.
For the molecule `Cc1nn(C2CCS(=O)(=O)C2)c(C)c1C(=O)O` (stereo unspecified), the RP-LC retention time amounted to 571 s.
For `CCc1noc(-c2ccc(SCC(=O)N3CCN(c4ccccn4)CC3)nc2)n1` the value was 619 s; for `Cc1ccc(N2CCn3c2nc2c3c(=O)n(CC(=O)O)c(=O)n2C)cc1C`, 771 s.
In turn, `Cc1ccc2c(c1)N(C(=O)CSc1ccc(N3CCCC(C(=O)NC4CC4)C3)nn1)CCO2` (stereo unspecified) had an RP-LC retention time of 687 s.
For `Cc1ccc(-c2nc3cnccn3c2NCCC(=O)NCc2cccs2)cc1` the value was 700 s.
For `CCNC(=O)N(CC(=O)N1CCc2sccc2C1COc1ccccc1)CC1CC1` (stereo unspecified), the RP-LC retention time turned out to be 857 s.
Consider `Cn1nc(COc2ccccc2)c2c1CCN(C(=O)Nc1ccccc1Cl)C2`, for which the RP-LC retention time was 889 s.
For `CCCn1c(=O)sc2cc(S(=O)(=O)N3CCC(C(=O)NCc4ccc(C)o4)CC3)ccc21` the value was 960 s.
`CC1=C(C(=O)NCCCN2CC(C)CC(C)C2)C2(CCN(Cc3ccccc3)CC2)OC1=O` (stereo unspecified) returned an RP-LC retention time of 567 s.
Consider `Cc1ccc(C)c(NC(=O)N2C[C@H](c3nc(-c4cccnc4)no3)[C@@H](C)C2)c1`, for which the RP-LC retention time is 794 s.
For `Fc1cccc(-c2nnc(Cc3nc(-c4ccc(Cl)cc4)no3)o2)c1` the value was 1110 s; for `Cc1ccccc1CNC(=O)CC1CCN(C(=O)c2[nH]c(C)c(C(=O)OC(C)C)c2C)CC1`, 853 s; for `O=S(=O)(Cc1ccccc1Cl)N(CCc1ccccc1)Cc1ccccn1`, 950 s.
For `O=C(Cn1nc2c(cc1=O)CCCC2)Nc1nc(-c2ccncc2)cs1`, the RP-LC retention time is 606 s.
`O=C(NCC1CCN(C(=O)Oc2ccccc2)CC1)C(=O)Nc1cccnc1` had an RP-LC retention time of 610 s.
`Cc1cc(C(=O)NCC23CCCC=C2N(CC2CC2)C(=O)CC3)n(C)n1` (stereo unspecified) displayed an RP-LC retention time of 800 s.
As for `Cc1ccc(NC(=O)Cn2c(N)nc(C)c(C)c2=O)cc1`, the RP-LC retention time was 611 s.
Turning to `COc1cccc(CCC(=O)N2CCc3cc(-c4csc(C)n4)ccc32)c1`, the RP-LC retention time was found to be 1040 s.
With `COc1ccc(C(=O)N2CCc3cc(-c4csc(C)n4)ccc32)cc1F`, the RP-LC retention time is 951 s.
Molecule `O=C(Nc1cccc(C(F)(F)F)c1)N1CCC(N2C[C@H]3C[C@H](C2)[C@H]2CCCC(=O)N2C3)CC1` registered an RP-LC retention time of 653 s.
For `CCOC(=O)CNC(=O)N1CCN(c2nc3ccccc3n2Cc2ccccc2)CC1` the value was 656 s; for `Cn1cnc(S(=O)(=O)N2CC(n3cc(C(=O)N4CCOCC4)nn3)C2)c1`, 575 s; for `Cc1ccccc1S(=O)(=O)N1CCn2c(nn(CC3CC3)c2=O)C1`, 766 s.
For `Cc1cc(C(=O)N2CCC(c3nc(-c4ccccc4)no3)C2)n[nH]1` (stereo unspecified) the value was 727 s; for `CCC(=O)Oc1ccc(NC(=O)c2ccc(S(=O)(=O)N3CCCC3)cc2)cc1`, 884 s; for `Cn1c(CCc2cccc(NC(=O)C3CCN(S(=O)(=O)N4CCCC4)CC3)c2)nc2ccccc21`, 672 s.
`COc1ccc(CNC2=NCCNC23CCN(S(=O)(=O)c2ccc(C)cc2C)CC3)cc1` returned an RP-LC retention time of 775 s.
In turn, `COc1cccc(-c2noc(C3CCCN3C(=O)Nc3ccccc3OC)n2)c1` (stereo unspecified) displayed an RP-LC retention time of 1020 s.
As for `Cc1ccc2[nH]c(=O)c(CCC(=O)NC(C)c3cn(C)nc3C)cc2c1` (stereo unspecified), the RP-LC retention time was found to be 618 s.
The molecule `COCCN1C(=O)[C@H]2CN(Cc3cc(OC)cc(OC)c3)C[C@H]2C1=O` yielded an RP-LC retention time of 598 s.
`Cc1cccc(NC(=O)N2CCC(c3nc(C(=O)N4CCCC4)c(C)o3)CC2)c1C` gave an RP-LC retention time of 781 s.
The molecule `Cc1nn(CC(=O)N2CCN(c3ccc(Cl)cc3)CC2)c(=O)c2nc(C(C)C)sc12` showed an RP-LC retention time of 921 s.
Consider `O=C(Cc1ccsc1)N1CCC(n2c(-c3ccoc3)nc3cccnc32)C1` (stereo unspecified), for which the RP-LC retention time was found to be 811 s.
`Cc1nc(C)c(C(=O)N2CCC(N3C(=O)C4(CCCC4)C3c3scnc3C)CC2)s1` (stereo unspecified) gave an RP-LC retention time of 684 s.
`COc1ccccc1-c1nnc(-c2ccc(C)c(S(=O)(=O)N3CCC(C)CC3)c2)o1`: the RP-LC retention time stood at 1150 s.
`CCCNC(=O)C1CCN(c2cc(SCC(=O)Nc3ccc(C(=O)OCC)cc3)ncn2)CC1` displayed an RP-LC retention time of 781 s.
For `COc1ccc(CC(=O)NCCc2ccc(N(C)C)cc2)cc1` the value was 571 s; for `O=C(c1ccc(F)c(F)c1)N1CCC2(CC1)NC(=O)N(Cc1ccc(F)cc1)C2=O`, 830 s.
Next, `Cc1ccccc1-c1nc(C)c(C(=O)NC(C)C)s1`: 903 s; `Cc1ccc(NS(=O)(=O)c2cc3c(s2)CCN(C(=O)C2CCC2)C3)cc1`: 864 s.
Next, `Cc1ccc(-n2nc(C)c3sc(N4CCCC(C(=O)Nc5cccc(Cl)c5C)C4)nc32)cc1` (stereo unspecified): 1310 s; `Cc1oc(C(C)C)nc1C(=O)Nc1ccc(Cl)cc1`: 1150 s; `COc1ccc(-c2noc(C3CC(=O)N(c4cc(Cl)ccc4OC)C3)n2)c(OC)c1` (stereo unspecified): 1010 s.
For `COCC(=O)N1CCCC(c2nc(CNC(=O)C3CCC3)cs2)C1` (stereo unspecified), the RP-LC retention time worked out at 597 s.
For the molecule `COc1ccccc1N1CCN(c2cc(SCC(=O)Nc3cc(F)ccc3Cl)ncn2)CC1`, the RP-LC retention time was 1190 s.
`CCN(CC)C(=O)c1ccc2c(c1)N(CC(=O)N1CCCCC1)C(=O)CO2` gave an RP-LC retention time of 691 s.
Regarding `Cc1cccc(N2CCN(C(=O)c3cn4cc(C)ccc4n3)CC2)c1`, the RP-LC retention time amounted to 702 s.
The molecule `CCOc1cccc(C2c3[nH]c4ccccc4c3CCN2C(=O)c2cccs2)c1` (stereo unspecified) displayed an RP-LC retention time of 1110 s.
Consider `O=C(NCC(O)c1ccsc1)Nc1cccc(Cl)c1` (stereo unspecified), for which the RP-LC retention time amounted to 734 s.
Take `Cn1c2ccccc2c2cnn(CC(=O)N3CCN(c4ccccn4)CC3)c(=O)c21`: the RP-LC retention time stood at 943 s.
For `Cc1noc(-c2cccc(OC3CN(C(=O)c4ccoc4)C3)c2)n1` the value was 787 s; for `O=C(NCc1ccco1)C1CCN(c2nccnc2Sc2ccccc2)CC1`, 883 s; for `COCCOC1CCC12CCN(C(=O)c1cnc[nH]1)CC2` (stereo unspecified), 575 s.
`CCCCC(=O)Nc1ncn[nH]1`: the RP-LC retention time came to 568 s.
`Cc1cccc(-c2nc3ccccn3c2NC(=O)NCc2ccccc2)c1` registered an RP-LC retention time of 656 s.
Molecule `Cc1oc(-c2ccccc2)nc1CN(c1ccccc1)S(=O)(=O)c1cccs1` showed an RP-LC retention time of 1150 s.
On to `Cc1ccc(NC(=O)Cn2nc(N3CCCCCC3)c3ccccc3c2=O)cc1C`, for which the RP-LC retention time was 1200 s.
Molecule `COc1ccc(NC(=O)c2cccs2)c([N+](=O)[O-])c1` came in with an RP-LC retention time of 860 s.
For the molecule `COc1cc(CN2CCc3nc(N4CCCC4)ncc3C2)ccc1OC(C)C`, the RP-LC retention time came out at 641 s.
On to `COc1ccc(S(=O)(=O)N2CCCC(C(=O)Nc3ccccc3Br)C2)cc1C` (stereo unspecified), for which the RP-LC retention time came to 1040 s.
The molecule `O=C(Nc1cc(-c2ccsc2)no1)c1ccc(F)c(F)c1` gave an RP-LC retention time of 982 s.
Consider `COc1ccc(OCC2CN(C(=O)Cc3ccc(OC)c(OC)c3OC)CCO2)cc1` (stereo unspecified), for which the RP-LC retention time stood at 794 s.
In the case of `C=CCN1C(=O)COc2ccc(-c3nc(NC(=O)COC)sc3C)cc21`, the RP-LC retention time came out at 836 s.
Molecule `CCC(CO)NCc1ccc(-c2ccc(Br)cc2)o1` (stereo unspecified) registered an RP-LC retention time of 683 s.
Molecule `COc1cccc(OC)c1C(=O)N1CCCC1c1cc(C(C)C)on1` (stereo unspecified) yielded an RP-LC retention time of 794 s.
Next, `Cc1c(CCC(=O)N[C@H](C)C(=O)O)c(=O)oc2c(C)c(O)ccc12`: 618 s; `COC(=O)Nc1nc(CC(=O)NCc2ccco2)cs1`: 606 s; `CN1CCN(C(=O)c2ccc(-c3ccc(Br)cc3)o2)CC1`: 588 s.
On to `COC(=O)c1ccc(NS(=O)(=O)c2cccc(S(C)(=O)=O)c2)cc1`, for which the RP-LC retention time stood at 706 s.
Molecule `Cc1ccc(NC(=O)N2CCc3nc[nH]c3C2)cc1` returned an RP-LC retention time of 575 s.
